In patent US8104331B2, “Method and device to extract components contained in a fluid” (Noab Biodiscoveries Inc., priority 2006, dated 2012):

Experiments:
[1] = In vivo SPME sampling of whole blood for pharmacokinetics after i.v. bolus diazepam; details: rat; for AUMC0-inf / AUMC0-tlast: metabolite, SPME (blood, equilibrium calibration), i.v. bolus 0.5 mg/kg diazepam, noncompartmental; for AUMC: SPME/blood, 2-compartment analysis
Procedure: (§1) Animal Experiments: Male Sprague-Dawley rats (Charles River Labs, St. Constant, PQ) with an average weight of 300 g are acclimatized to their new environment for a minimum of 5 days prior to surgery. […] The catheters are plugged with removable metal plugs at the free end and then exteriorized by threading them under the skin and through a small incision at the nape of the neck. Animals are allowed to recover overnight prior to dosing. […] In vivo mouse experiments are conducted with conscious male Swiss Webster mice implanted with a carotid artery catheter. All procedures followed have been reviewed by the NoAb BioDiscoveries Inc. animal care committee and were performed in accordance with the principles of the Canadian Council on Animal Care (CCAC).
A device to extract components is attached to the carotid artery catheter prior to dosing each rat or mouse. To insert the probes, the tip of the SPME probe needle is used to pierce the septum of the device. The length of the fiber or wire of the probe is chosen so that the coated wire is completely exposed to the blood flow when the plunger is fully depressed. Before use, the SPME probe is sterilized in an autoclave at 121° C. and 15 psi for about 30 minutes. For validation purposes, blood draws are taken from the same interface after each sampling with SPME. All the probes are for single use.
(§2) For each time point (5, 15, 30, 45, 60, 75, 120, 180, 240 and 360 min), the probes are in place for about two (2) minutes before the stated analysis time and blood draws are performed immediately after removing the probes. After the two (2) minute extraction time, the probes are removed, rinsed with water, and stored at −20° C. until the next day, when analysis is performed. […] For SPME calibration, rat whole blood is spiked with appropriate amounts of benzodiazepines and incubated with 10% CO2 atmosphere. The analytical range is 3-750 ng/mL.
(§3) Areas under the plasma concentration versus time curves (AUCs) represent the areas under the curve from the time of dosing and extrapolated to infinity. […] The total body clearance (CL) is estimated as: Dose/AUC. Mean residence times (MRT) are calculated as: AUMC/AUC, where AUMC denotes the area under the first moment curve. The steady-state volume of distribution (Vss) is calculated as: CL*MRT.
(§4) AUCs are calculated by the linear/log-linear trapezoidal rule. AUCs represent the areas under the curve from the time of dosing: (1) to the time (tlast) of the last measurable concentration, Clast (AUC0-tlast) and, (2) extrapolated to infinity (AUC0-inf). AUC0-inf is estimated by the addition of AUC0-tlast and Clast/k, where k (or λz) represents the terminal elimination rate constant. K is estimated by weighted (1/Y^2) regression analysis of at least 4 time points from the terminal (log-linear) portion of the concentration versus time curve.
In vivo experiments are conducted with conscious male Sprague-Dawley rats implanted with jugular vein and carotid artery catheters. The catheters are plugged and exteriorized at the nape of the neck. Prior to dosing, the opening of the device is connected to the carotid artery catheter. The channel of the device is either connected to the jugular vein catheter or is connected to a syringe pump. Connecting the device to the jugular vein catheter allowed for automatic return of the arterial blood, using the pumping action of the heart of the animal. Connecting the device to a syringe allows for precise control of the blood flow rate through the device. The device and the associated tubing are kept warm at 38° C.
At each sampling time point, a sterile SPME device is placed through the septum into the interface so that only the coated portion of the fiber is exposed to the flowing blood. Blood flow through the device is either allowed to run freely via recirculation to the jugular vein or is induced by the push/pull action of a syringe attached to the channel.

[2] = Conventional plasma sampling and analysis for pharmacokinetics after i.v. bolus diazepam; details: rat; for AUMC0-inf / AUMC0-tlast: metabolite, i.v. bolus 0.5 mg/kg diazepam, noncompartmental; for AUMC: 2-compartment analysis
Procedure: as §1, §2
Conventional Plasma Sampling and Analysis: In addition to SPME sampling, 0.2 mL of blood is withdrawn from the interface at each time point. Plasma is isolated by centrifugation at 2500 rpm for 10 minutes and frozen at −20° C. in 2 mL cryovials (Wheaton Science Products, Millville, N.J.) until analysis. For analysis, 0.05 mL of plasma is mixed with 0.25 mL acetonitrile containing 25 ng/mL lorazepam as internal standard in conical centrifuge vials. After vortex mixing (2400 rpm, 5 minutes) and centrifugation (14000 rpm, 7 minutes), 0.2 mL of the supernatant is transferred to a 96-well plate and evaporated to dryness under flowing nitrogen. The residue is dissolved in 0.1 mL acetonitrile/water (75:25) on a shaking bed (150 rpm). Twenty μL is injected for analysis using the same chromatographic conditions as for the analysis of SPME probes. The linear range is 0.1-1000 ng/mL.
as §3, §4
For validation of the in vivo sampling method taught by the applicant's teachings, blood is sampled after each probe extraction, and plasma is isolated by centrifugation.

Work on `O=C1CN=C(c2ccccc2)c2cc(Cl)ccc2N1` [Nordiazepam, nordiazepam] yielded an AUMC0-inf [1] of 50.0 h^2*ng/mL, an AUMC0-tlast [1] of 7.86 h^2*ng/mL and an AUMC0-inf [2] of 16.5 h^2*ng/mL. It also gave an AUMC0-tlast [2] of 6.38 h^2*ng/mL.

In the case of `O=C1Nc2ccc(Cl)cc2C(c2ccccc2)=NC1O` (stereo not drawn) [Oxazepam, oxazepam], the AUMC0-inf [1] was 834 h^2*ng/mL, the AUMC0-tlast [1] was 278 h^2*ng/mL and the AUMC0-inf [2] was 293 h^2*ng/mL. For the same compound, the AUMC0-tlast [2] was 176 h^2*ng/mL.

Compound `CN1C(=O)CN=C(c2ccccc2)c2cc(Cl)ccc21` [diazepam] has an AUMC ([1]; equilibrium calibration, diazepam 0.5 mg/kg i.v. bolus) of 527 h^2*ng/mL, an AUMC ([1]; kinetic calibration, diazepam 1 mg/kg i.v. bolus) of 741 h^2*ng/mL and an AUMC ([2]; equilibrium calibration study, diazepam 0.5 mg/kg i.v. bolus) of 319 h^2*ng/mL. For the same compound, the AUMC ([2]; kinetic calibration study, diazepam 1 mg/kg i.v. bolus) was 1000 h^2*ng/mL.
